According to patent EP3807270B1, “NOVEL HETEROARYL HETEROCYCLYL COMPOUNDS FOR THE TREATMENT OF AUTOIMMUNE DISEASE” (F. Hoffmann-La Roche AG, priority 2018, dated 2019):

Columns and labels:
CYP2D6 = biological target: T1, CYP2D6 (Homo sapiens, UniProt P10635); assay: CYP inhibition assay in human liver microsome; assay type: in vitro ADME; conditions: human liver microsomes, probe dextromethorphan, 10µM test compound, dextromethorphan substrate, <0: not or weak inhibitor, read-out: CYP 2D6 inhibition %@10µM
T1 construct: tissue BD-Gentest 452117; host or cells: human liver microsomes
T1 sequence (P10635 whole entry): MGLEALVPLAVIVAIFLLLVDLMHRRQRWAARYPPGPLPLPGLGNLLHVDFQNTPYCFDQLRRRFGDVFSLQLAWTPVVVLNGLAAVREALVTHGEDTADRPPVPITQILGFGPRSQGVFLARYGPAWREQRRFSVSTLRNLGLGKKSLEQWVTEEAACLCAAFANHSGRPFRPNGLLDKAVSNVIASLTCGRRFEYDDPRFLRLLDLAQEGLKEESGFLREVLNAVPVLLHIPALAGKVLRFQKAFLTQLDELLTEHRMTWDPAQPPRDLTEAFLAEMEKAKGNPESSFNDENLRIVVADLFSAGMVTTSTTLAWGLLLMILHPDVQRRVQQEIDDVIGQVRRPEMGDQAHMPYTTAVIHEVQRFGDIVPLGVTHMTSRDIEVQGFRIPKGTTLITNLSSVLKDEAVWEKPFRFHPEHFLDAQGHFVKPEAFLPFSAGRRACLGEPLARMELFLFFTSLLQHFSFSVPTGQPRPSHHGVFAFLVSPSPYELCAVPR
Experimental: This is a high throughput screening assay used for assessment of reversible inhibition of CYP2D6 activity of test compounds in human liver microsome (HLM) in early discovery stage. Table 4. Chemicals and materials used in the CYP inhibition assay
10 mM DMSO stock solutions of test compounds were diluted in DMSO to generate 2 mM intermediate stock solution. 250 nL of intermediate stock solution were transferred in duplicate into 3 separate 384 well microtitre plates (assay-ready plates). A mixture of HLM and each substrate was made up. 45 µL of HLM substrate mix was then transferred to each well of an assay ready plate and mixed. The negative (solvent) and positive control (standard inhibitor for CYP 2D6) were included in each assay ready plate. The assay ready plate was warmed to 37 °C in an incubator over 10 minutes. 5 µL pre-warmed NADPH regenerating system was added to each incubation well to start the reaction. Final incubation volume was 50 µL. The assay plate then was placed back in the 37 °C incubator. After 10-minute incubation, incubates were quenched by addition of 50 µL 100% acetonitrile containing internal standards (20 ng/mL D3-Dextrorphan). The supernatants were collected for RapidFire/MS/MS analysis.
RapidFire online solid phase extraction/sample injection system (Agilent) coupled with API4000 triple quadrupole mass spectrometer (AB Sciex) were used for sample analysis. The mobile phase composed of acetonitrile and water supplemented with 0.1% formic acid. A C4 solid phase extraction cartridge is used for sample separation. MS detection is achieved in positive ion MRM mode.
Peak areas for substrate, metabolite and internal standard are determined using the RapidFire integrator software (version 3.6.12009.12296). Peak area ratios (PAR) of metabolite and internal standard (stable-labelled metabolite) are then calculated. The measurement window for each experiment is then defined: • PAR (0% activity)= average PAR for all incubations containing concentrated inhibitor; • Par (100% activity)= average PAR for all incubations containing no inhibitor (DMSO controls); • % Activity (test inhibitor) • =[PAR(test inhibitor)-PAR(0% activity)]/[PAR(100% activity)-PAR(0% activity)]; • % Inhibition (test inhibitor)=100-% Activity (test inhibitor).

hTLR9 = biological target: T2, hTLR9 (Homo sapiens, UniProt Q9NR96); assay: HEK293-Blue-hTLR-9 cells assay (SEAP reporter, ODN2006 stimulation); assay type: cell-based; design: host or cells: HEK293 (HEK-Blue); conditions: HEK293-Blue-hTLR9 cells, ODN2006, 20 hrs; read-out: HEK/hTLR9 IC50
T2 sequence (Q9NR96 26-1032): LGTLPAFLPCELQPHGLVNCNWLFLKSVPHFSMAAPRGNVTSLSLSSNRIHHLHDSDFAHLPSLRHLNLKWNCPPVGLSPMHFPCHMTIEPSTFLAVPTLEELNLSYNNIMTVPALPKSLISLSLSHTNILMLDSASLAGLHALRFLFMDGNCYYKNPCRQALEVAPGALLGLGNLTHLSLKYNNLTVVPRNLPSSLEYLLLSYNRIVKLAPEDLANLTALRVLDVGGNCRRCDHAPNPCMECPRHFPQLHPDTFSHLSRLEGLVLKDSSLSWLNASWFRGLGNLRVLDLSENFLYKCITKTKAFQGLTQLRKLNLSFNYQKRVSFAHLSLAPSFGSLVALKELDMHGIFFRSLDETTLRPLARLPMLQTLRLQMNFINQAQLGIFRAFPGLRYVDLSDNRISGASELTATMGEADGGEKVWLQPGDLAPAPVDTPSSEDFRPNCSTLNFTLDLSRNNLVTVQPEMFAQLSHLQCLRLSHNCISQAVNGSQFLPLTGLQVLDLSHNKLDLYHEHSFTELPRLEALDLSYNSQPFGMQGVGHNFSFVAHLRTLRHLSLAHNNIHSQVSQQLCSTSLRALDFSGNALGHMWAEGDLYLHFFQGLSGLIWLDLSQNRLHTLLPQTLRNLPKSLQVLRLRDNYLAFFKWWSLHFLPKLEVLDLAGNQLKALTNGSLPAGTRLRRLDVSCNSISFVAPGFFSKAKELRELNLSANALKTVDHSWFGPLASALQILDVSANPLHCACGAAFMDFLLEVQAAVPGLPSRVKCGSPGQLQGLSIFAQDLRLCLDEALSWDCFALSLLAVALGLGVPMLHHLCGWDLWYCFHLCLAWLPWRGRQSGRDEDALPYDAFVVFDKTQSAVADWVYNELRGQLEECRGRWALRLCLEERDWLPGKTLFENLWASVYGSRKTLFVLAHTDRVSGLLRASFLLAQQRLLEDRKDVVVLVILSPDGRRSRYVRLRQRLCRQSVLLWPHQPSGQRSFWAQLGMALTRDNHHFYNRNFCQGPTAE
Description: A stable HEK293-Blue-hTLR-9 cell line was purchased from InvivoGen (Cat.#: hkb-htlr9, San Diego, California, USA). These cells were originally designed for studying the stimulation of human TLR9 by monitoring the activation of NF-κB. A SEAP (secreted embryonic alkaline phosphatase) reporter gene was placed under the control of the IFN-β minimal promoter fused to five NF-κB and AP-1-binding sites. The SEAP was induced by activating NF-κB and AP-1 via stimulating HEK-Blue hTLR9 cells with TLR9 ligands. Therefore, the reporter expression was declined by TLR9 antagonist under the stimulation of a ligand, such as ODN2006 (Cat.#: tlrl-2006-1, Invivogen, San Diego, California, USA), for incubation of 20 hrs. The cell culture supernatant SEAP reporter activity was determined using QUANTI-Blue™ kit (Cat.#: rep-qb 1, Invivogen, San Diego, California, USA) at a wavelength of 640 nm, a detection medium that turns purple or blue in the presence of alkaline phosphatase.
HEK293-Blue-hTLR9 cells were incubated at a density of 250,000-450,000 cells/mL in a volume of 170 µL in a 96-well plate in Dulbecco's Modified Eagle's medium (DMEM) containing 4.5 g/L glucose, 50 U/mL penicillin, […], […], 2 mM L-glutamine, 10% (v/v) heat-inactivated fetal bovine serum with addition of 20 µL test compound in a serial dilution in the presence of final DMSO at 1% and 10 µL of 20uM ODN2006 in above DMEM, perform incubation under 37 °C in a CO2 incubator for 20 hrs. Then 20 µL of the supernatant from each well was incubated with 180 µL Quanti-blue substrate solution at 37 °C for 2 hrs and the absorbance was read at 620-655 nm using a spectrophotometer. The signaling pathway that TLR9 activation leads to downstream NF-κB activation has been widely accepted, and therefore similar reporter assay was modified for evaluating TLR9 antagonist.

Compound | inhibition at 10 min, 10 µM (CYP2D6) | IC50 (hTLR9)
C[C@@H]1CN(c2ccc(C#N)c3ncccc23)C[C@H](CN2CC3(C2)CN(c2ccc4c(c2)CCNC4)CCO3)O1 [Example 44, 5-[(2R,6S)-2-methyl-6-[[8-(1,2,3,4-tetrahydroisoquinolin-6-yl)-5-oxa-2,8-diazaspiro[3.5]nonan-2-yl]methyl]morpholin-4-yl]quinoline-8-carbonitrile] | 4% | 85 nM
C[C@@H]1CN(c2ccc(C#N)c3ncccc23)C[C@H](CN2CCN(c3ncc4c(n3)CCNC4)CC2)O1 [Example 29, 5-[(2R,6S)-2-methyl-6-[[4-(5,6,7,8-tetrahydropyrido[4,3-d]pyrimidin-2-yl)piperazin-1-yl]methyl]morpholin-4-yl]quinoline-8-carbonitrile] | 16.5% | 122 nM
C[C@@H]1CN(c2ccc(C#N)c3ncccc23)C[C@H](CN2CCN(c3cc4c(cn3)CCN[C@@H]4C)CC2)O1 (single isomer, unassigned) [Example 74] | 6% | 89 nM
C[C@@H]1CN(c2ccc(C#N)c3ncccc23)C[C@H](CN2CC3(C2)CN(c2ccc4c(n2)CNCC4)CCO3)O1 [Example 45, 5-[(2R,6S)-2-methyl-6-[[8-(5,6,7,8-tetrahydro-1,7-naphthyridin-2-yl)-5-oxa-2,8-diazaspiro[3.5]nonan-2-yl]methyl]morpholin-4-yl]quinoline-8-carbonitrile] | 9% | 113 nM
C[C@@H]1CN(c2ccc(C#N)c3ncccc23)C[C@H](CN2CC3(CCN3c3ccc4c(n3)CCNC4)C2)O1 [Example 36, 5-[(2R,6S)-2-methyl-6-[[1-(5,6,7,8-tetrahydro-1,6-naphthyridin-2-yl)-1,6-diazaspiro[3.3]heptan-6-yl]methyl]morpholin-4-yl]quinoline-8-carbonitrile] | 13.5% | 45 nM
C[C@@H]1CN(c2ccc(C#N)c3ncccc23)C[C@H](CN2C[C@H]3CN(c4ccc5c(n4)CCNC5)CC[C@H]32)O1 (single isomer, unassigned) [Example 55] | 10.5% | < 32 nM
C[C@@H]1CN(c2ccc(C#N)c3ncccc23)C[C@H](CN2CCN(c3ncc4c(n3)CNC4)CC2)O1 [Example 11, 5-[(2S,6R)-2-[[4-(6,7-dihydro-5Hpyrrolo[3,4-d]pyrimidin-2-yl)piperazin-1-yl]methyl]-6-methyl-morpholin-4-yl]quinoline-8-carbonitrile] | 19% | 252 nM

Results, then the compound that gave them:

inhibition at 10 min, 10 µM (CYP2D6) | IC50 (hTLR9) | Compound
0.5% | 64 nM | C[C@@H]1CN(c2ccc(C#N)c3ncccc23)C[C@H](CN2CCN(c3ccc4c(c3)CCNC4)CC2)O1 [Example 5, 5-[(2R,6S)-2-methyl-6-[[4-(1,2,3,4-tetrahydroisoquinolin-6-yl)piperazin-1-yl]methyl]morpholin-4-yl]quinoline-8-carbonitrile]
-2% | 60 nM | CC1NCc2ncc(N3CCN(C[C@H]4CN(c5ccc(C#N)c6ncccc56)C[C@@H](C)O4)CC3)cc21 (stereo partly drawn) [Example 41, 5-[(2R,6S)-2-methyl-6-[[4-(5-methyl-6,7-dihydro-5H-pyrrolo[3,4-b]pyridin-3-yl)piperazin-1-yl]methyl]morpholin-4-yl]quinoline-8-carbonitrile]
6% | 45 nM | C[C@@H]1CN(c2ccc(C#N)c3ncccc23)C[C@H](CN2CCN(c3ccc4c(c3)C(O)CNC4)CC2)O1 (stereo partly drawn) [Example 22, 5-[(2S,6R)-2-[[4-(4-hydroxy-1,2,3,4-tetrahydroisoquinolin-6-yl)piperazin-1-yl]methyl]-6-methyl-morpholin-4-yl]quinoline-8-carbonitrile]
17.5% | 41 nM | C[C@@H]1CN(c2ccc(C#N)c3ncccc23)C[C@H](CN2CCN(c3ccc4c(n3)CNC4)CC2)O1 [Example 30, 5-[(2S,6R)-2-[[4-(6,7-dihydro-5H-pyrrolo[3,4-b]pyridin-2-yl)piperazin-1-yl]methyl]-6-methyl-morpholin-4-yl] quinoline-8-carbonitrile]
